According to ChEMBL document CHEMBL1201862, “PubChem BioAssay data set” (2004):
Active and inactive are the calls of the source.

Tests used:
[1] = tested on: Streptococcus sp. 'group A'; experiment: Streptococcus pyogenes SK(-)GAS viability under kanamycin – luminescence, BacTiterGlo, confirmation, counter-screen for streptokinase expression inhibitor project, dose response (AID 1900); assay type: functional, organism-based
Streptococcus = experiment: GAS UMAA2166 growth inhibition – luminescence, BacTiterGlo, counter-screen for streptokinase expression inhibitor project, dose response (AID 1915); assay type: functional, organism-based;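 also: potency for reduction of bacterial viability or growth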
Streptokinase A = biological target: T1, Streptokinase A (Streptococcus pyogenes serotype M1, UniProt P10520); experiment: viability-normalized secreted streptokinase activity reduction – plasminogen activation absorbance, OD405, dose response (AID 1914); assay type: functional, Streptococcus pyogenes M1 GAS;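 also: secreted streptokinase activity via plasminogen activation per viability signal from cell pellet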
T1 sequence (P10520 whole entry): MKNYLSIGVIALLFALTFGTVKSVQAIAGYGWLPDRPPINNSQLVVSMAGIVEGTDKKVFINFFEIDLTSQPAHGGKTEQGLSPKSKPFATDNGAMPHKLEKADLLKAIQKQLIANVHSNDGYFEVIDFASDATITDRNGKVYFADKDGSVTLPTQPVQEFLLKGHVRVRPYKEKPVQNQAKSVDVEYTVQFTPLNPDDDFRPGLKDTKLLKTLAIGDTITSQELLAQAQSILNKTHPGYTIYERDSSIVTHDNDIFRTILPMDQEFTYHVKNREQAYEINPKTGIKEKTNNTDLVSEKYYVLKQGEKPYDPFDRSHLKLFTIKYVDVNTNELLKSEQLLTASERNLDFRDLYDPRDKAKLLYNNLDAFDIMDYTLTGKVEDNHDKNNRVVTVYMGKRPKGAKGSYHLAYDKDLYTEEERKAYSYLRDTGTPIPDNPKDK

[2] = Trypanosoma cruzi growth suppression in host cells – NIH3T3 host cells, beta-gal luminescence, confirmation (AID 2044); assay type: functional, cell-based;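 also: intracellular parasites grown in NIH/3T3 mouse fibroblasts as host cells; luminescent beta-galactosidase reporter signal from transgenic T. cruzi replicating inside host cells; inhibitors lower the luminescence signal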
[3] = NIH3T3 cell viability loss – ATP luminescence, mouse fibroblasts, counter-screen, dose response (AID 2010); assay type: functional, cell-based;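 also: cells exposed to compound for about 90 hours before reading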
Cytochrome P450 2C19 = Cytochrome P450 2C19 (Homo sapiens, UniProt P33261); experiment: Cytochrome panel assay with activity outcomes. Panel member name: p450-cyp2c19 Compounds with AC50 equal or less than 10 uM are considered active; assay type: functional
Chain of Cytochrome P450 2C19 (P33261 whole entry): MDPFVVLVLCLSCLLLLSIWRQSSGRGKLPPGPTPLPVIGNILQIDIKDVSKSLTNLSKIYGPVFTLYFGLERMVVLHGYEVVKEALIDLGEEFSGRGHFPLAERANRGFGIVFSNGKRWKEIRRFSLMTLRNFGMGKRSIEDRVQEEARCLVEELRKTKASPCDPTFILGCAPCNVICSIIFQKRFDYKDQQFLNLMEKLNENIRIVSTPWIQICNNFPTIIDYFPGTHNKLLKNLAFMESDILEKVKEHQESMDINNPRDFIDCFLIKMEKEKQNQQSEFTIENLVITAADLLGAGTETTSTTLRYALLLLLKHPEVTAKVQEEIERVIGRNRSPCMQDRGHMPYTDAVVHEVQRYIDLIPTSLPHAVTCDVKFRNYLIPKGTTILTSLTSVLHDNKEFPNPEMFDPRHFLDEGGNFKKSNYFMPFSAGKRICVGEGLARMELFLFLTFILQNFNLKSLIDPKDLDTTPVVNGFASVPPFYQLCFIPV

[4] = biological target: T2, Replicative DNA helicase DnaB (Mycobacterium tuberculosis, UniProt P9WMR3); experiment: DnaB intein splicing inhibitors, dose response, biochemical, cell-free fluorescence (AID 449749); assay type: functional
T2 sequence (P9WMR3 whole entry): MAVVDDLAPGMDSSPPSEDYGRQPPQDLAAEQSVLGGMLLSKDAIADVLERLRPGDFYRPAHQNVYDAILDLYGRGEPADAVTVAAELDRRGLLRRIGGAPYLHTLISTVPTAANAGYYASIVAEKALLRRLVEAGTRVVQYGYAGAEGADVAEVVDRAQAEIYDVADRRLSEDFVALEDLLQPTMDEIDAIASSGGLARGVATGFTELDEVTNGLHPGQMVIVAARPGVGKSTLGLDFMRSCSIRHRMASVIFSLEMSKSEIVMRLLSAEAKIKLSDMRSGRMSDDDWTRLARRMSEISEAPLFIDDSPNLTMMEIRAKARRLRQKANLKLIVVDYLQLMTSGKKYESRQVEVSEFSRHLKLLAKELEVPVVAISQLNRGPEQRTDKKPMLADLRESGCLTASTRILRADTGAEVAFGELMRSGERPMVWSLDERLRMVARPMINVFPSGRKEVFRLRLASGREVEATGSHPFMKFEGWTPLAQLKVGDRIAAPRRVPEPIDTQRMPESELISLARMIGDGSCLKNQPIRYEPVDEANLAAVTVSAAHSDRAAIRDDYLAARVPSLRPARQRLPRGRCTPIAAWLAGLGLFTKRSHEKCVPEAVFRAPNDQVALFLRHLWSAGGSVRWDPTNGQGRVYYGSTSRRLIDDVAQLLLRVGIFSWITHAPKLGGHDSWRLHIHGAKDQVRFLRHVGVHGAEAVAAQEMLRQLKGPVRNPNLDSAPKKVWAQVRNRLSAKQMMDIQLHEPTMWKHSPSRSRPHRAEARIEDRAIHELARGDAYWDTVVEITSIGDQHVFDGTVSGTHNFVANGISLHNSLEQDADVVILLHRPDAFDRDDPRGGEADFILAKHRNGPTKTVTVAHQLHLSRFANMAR

Protein RecA = biological target: T3, Protein RecA (Mycobacterium tuberculosis, UniProt P9WHJ3); experiment: Fluorescence Cell-Free Homogeneous Dose Retest to Identify Inhibitors of RecA-Intein Splicing Activity. [Related pubchem assays (depositor defined):AID2097, AID2223, AID489010, AID492950]; assay type: functional
T3 sequence (P9WHJ3 whole entry): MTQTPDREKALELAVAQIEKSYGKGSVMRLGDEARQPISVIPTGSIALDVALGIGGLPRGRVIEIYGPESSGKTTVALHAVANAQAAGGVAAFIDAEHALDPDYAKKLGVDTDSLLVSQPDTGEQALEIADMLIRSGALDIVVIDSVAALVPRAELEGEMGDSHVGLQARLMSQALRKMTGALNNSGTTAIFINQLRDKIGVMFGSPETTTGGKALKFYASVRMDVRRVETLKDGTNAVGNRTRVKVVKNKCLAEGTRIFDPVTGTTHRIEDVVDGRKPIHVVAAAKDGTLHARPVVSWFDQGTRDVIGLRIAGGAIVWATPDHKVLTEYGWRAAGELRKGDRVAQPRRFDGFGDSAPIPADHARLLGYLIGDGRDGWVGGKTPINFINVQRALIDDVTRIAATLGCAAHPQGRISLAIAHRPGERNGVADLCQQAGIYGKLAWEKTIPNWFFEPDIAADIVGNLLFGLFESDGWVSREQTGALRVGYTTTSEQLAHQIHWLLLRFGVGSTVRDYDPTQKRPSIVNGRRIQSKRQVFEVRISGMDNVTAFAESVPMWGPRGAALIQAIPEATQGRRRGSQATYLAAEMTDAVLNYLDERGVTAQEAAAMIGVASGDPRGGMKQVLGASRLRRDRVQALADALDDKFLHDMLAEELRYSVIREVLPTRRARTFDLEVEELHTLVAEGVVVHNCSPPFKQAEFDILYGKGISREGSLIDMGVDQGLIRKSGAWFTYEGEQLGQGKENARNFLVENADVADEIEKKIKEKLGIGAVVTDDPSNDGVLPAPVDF

SMILES | EC50 [1] | EC50 (Streptococcus) | EC50 (Streptokinase A) | EC50 [2] | EC50 [3] | other results
CCOc1ccc(C(=O)NC(=S)Nc2ccc(N3CCOCC3)c(Cl)c2)cc1[N+](=O)[O-] | 0.724 µM (active) | 21.4 µM (active) | > 150 µM (not active) |  |  | 
CN(CCc1ccccn1)C1CCCN(S(=O)(=O)c2ccc(F)c(Cl)c2)C1 (stereo unspecified) |  |  |  | 1.2 µM (active) | > 60 µM (not active) | 
C[C@@H](C(=O)NCCc1ccccc1)N1C(=O)N2CCc3c([nH]c4ccccc34)[C@@]2(C)C1=O |  |  |  | 2 µM (active) | > 60 µM (not active) | 
Cc1cc(=O)oc2cc(O)c(CN(C)CC(=O)O)cc12 |  |  |  |  |  | AC50 (Cytochrome P450 2C19): inconclusive
Cc1nn2c(O)cc(C(C)(C)C)nc2c1-c1ccccc1 | 2.71 µM (active) | 6.75 µM (active) |  | 1.85 µM (active) | 4.17 µM (active) | 
NC(=O)NC(=O)CSc1nc2cc([N+](=O)[O-])ccc2n1-c1cccc(C(F)(F)F)c1 | 0.301 µM (active) | 19.2 µM (active) | > 150 µM (not active) |  |  | 
Cc1c(C(=O)Nc2ccc(-c3nnc4n3CCCCC4)cc2)oc2ccc(Br)cc12 |  |  |  | 1.18 µM (active) | > 60 µM (not active) | 
CC(=O)c1ccc(NC(=O)CN2C(=O)/C(=C/C=C/c3ccccc3)SC2=S)cc1 |  | > 150 µM (not active) | > 150 µM (not active) |  |  | 
CC(=O)N1c2ccc(S(=O)(=O)N3CCC(C(=O)Nc4cc(C)ccn4)CC3)cc2CC1C (stereo unspecified) | > 150 µM (not active) | > 150 µM (not active) | > 150 µM (not active) |  |  | 
CC(C)C(=O)NC(=S)Nc1ccccc1N1CCN(C(=O)c2ccc(Cl)cc2)CC1 |  |  |  | 1.47 µM (active) | > 60 µM (not active) | 
C=CCN1C(=O)NC(=O)/C(=C(/C)Nc2ccc(N(CC)CC)cc2)C1=O | 5.15 µM (active) | 14 µM (active) | > 150 µM (not active) |  |  | 
CCCCN1C(=O)NC(=O)/C(=C(/CC)Nc2ccc3c(c2)CCC3)C1=O | 15.9 µM (active) | > 150 µM (not active) | 74.1 µM (active) |  |  | 
CCc1ccc(N(CC(=O)NC2CC2)S(=O)(=O)c2ccc(C)cc2)cc1 | > 150 µM (not active) | > 150 µM (not active) | > 150 µM (not active) |  |  | 
CCn1c(S)nnc1CCNC(=O)c1ccc(Cl)cc1Cl |  |  |  |  |  | AC50 (Cytochrome P450 2C19; read-out: AC50): 10 µM (inconclusive)
CCCCNc1c(-c2ccc(-c3ccc(C(C)=O)cc3)c(OC)c2)nc2cnccn12 | 5.22 µM (active) | 21.1 µM (active) | 114 µM (inconclusive) |  |  | 
CC(C)Cc1nnc(NC(=O)c2ccc([N+](=O)[O-])cc2)s1 |  |  |  |  |  | AC50 (Cytochrome P450 2C19): inconclusive
CC1CCN(CC(O)COCCC23CC4CC(CC(C4)C2)C3)CC1 (stereo unspecified) |  |  |  | 0.164 µM (active) | > 60 µM (not active) | 
COC(=O)[C@@]1(Cc2ccc(F)cc2)[C@H]2c3cc(C(=O)N(C)C)n(CCSCCO)c3C[C@H]2CN1C(=O)c1ccccc1 |  |  |  |  |  | AC50 (Cytochrome P450 2C19; read-out: AC50): 39.8 µM (inconclusive)
O=C(C[n+]1ccc2ccccc2c1)Nc1cc(C(F)(F)F)ccc1Cl | > 150 µM (not active) | > 150 µM (not active) | > 150 µM (not active) |  |  | 
CC(Oc1ccccc1)C(=O)NC1C(=O)N2C1SC(C)(C)C2C(=O)O (stereo unspecified) | 0.11 µM (active) | 0.124 µM (active) |  |  |  | 

SMILES | EC50 [1] | EC50 (Streptococcus) | EC50 (Streptokinase A) | EC50 [2] | EC50 [3] | other results
Cc1ccc(S(=O)(=O)Cn2nnnc2C(C(C)C)N2CCN(c3nc4ccccc4s3)CC2)cc1 (stereo unspecified) |  |  |  | 0.532 µM (active) | > 60 µM (inconclusive) | 
Cc1onc(-c2ccccc2)c1C(=O)NNC(=S)NC(=O)/C=C/c1cccs1 | 1.02 µM (active) | 2.02 µM (active) |  |  |  | 
CCOC(=O)c1c(NC(=O)CSc2nnnn2-c2ccccc2)sc2c1CC(C)(C)NC2(C)C |  |  |  | 0.831 µM (active) | 8.34 µM (active) | 
Cc1sc(NC(=O)c2ccco2)c(CN2CCN(Cc3ccccc3)CC2)c1C |  |  |  | 3.39 µM (active) | > 30 µM (not active) | 
COc1ccc(CNc2ccc(Cl)cc2)cc1Cn1ccnc1 |  |  |  | 0.114 µM (active) | > 60 µM (not active) | 
COc1ccc(NS(=O)(=O)c2cccc(NC(=O)c3cnccn3)c2)cc1Br |  |  |  | 1.79 µM (active) | > 60 µM (not active) | 
N#Cc1c(NC(=O)CSc2nnc(Cc3ccccc3)[nH]2)oc(-c2ccccc2)c1-c1ccccc1 |  |  | 4.54 µM (active) |  |  | 
COCC1CCN(Cc2c[nH]nc2-c2cc3ccccc3o2)C1 (stereo unspecified) |  |  |  | 0.76 µM (active) | > 60 µM (not active) | 
COC(=O)c1ccc(-c2nc(CN3CCN(Cc4cccc(C)c4)CC3)c(C)o2)cc1 |  |  |  | 0.164 µM (active) | > 60 µM (not active) | 
O=C(Nc1nc(N2C(=O)c3ccccc3C2=O)n(-c2ccccc2)n1)c1ccc(Cl)cc1 | 8.84 µM (active) | 22.9 µM (active) | > 150 µM (not active) |  |  | 
CC(C)(C)c1ccc(C(=O)Nc2ccc(F)cc2)s1 | > 150 µM (not active) | > 150 µM (not active) | > 150 µM (not active) |  |  | 
O=C(Nc1ccc2c(c1)N(S(=O)(=O)c1cccs1)CCC2)c1c(F)cccc1Cl | > 150 µM (not active) | > 150 µM (not active) | > 150 µM (not active) |  |  | 
O=C(NC1CCN(Cc2ccccc2)CC1)c1ccccc1 |  |  |  | 0.721 µM (active) | 10.8 µM (active) | 
CN1CCN(CC(O)COC(c2ccccc2)c2ccccc2)CC1 (stereo unspecified) |  |  |  | 1.3 µM (active) | > 30 µM (not active) | 
COc1ccc(NC(=O)Nc2c(O)ccc3ccccc23)cc1 |  |  |  |  |  | AC50 [4]: > 380 µM (inactive); EC50 (Protein RecA): 1.49 µM (active)
C/C(=N\NC(=O)Cc1ccc(Cl)cc1)c1ccccc1O |  |  |  | 2.79 µM (active) | 10.8 µM (active) | 
COc1cc(/C=N/NC(=O)c2nnn(-c3nonc3N)c2C(C)C)ccc1OCc1ccc(F)cc1 | 8.61 µM (active) | 47 µM (active) | 13.4 µM (active) |  |  | 
Cc1nn(Cc2ccc(Cl)cc2Cl)c(Cl)c1/C=N/NC(=O)CNc1cccc(C(F)(F)F)c1 |  |  |  | 2.62 µM (active) | > 60 µM (inconclusive) | 
C/C(CC(=O)Nc1ccccn1)=N\NC(=O)C(=O)Nc1cccc(Cl)c1C |  |  |  |  |  | AC50 (Cytochrome P450 2C19; read-out: AC50): 11.2 µM (inconclusive)
